# Read-outs that look alike come from different tables or passages of the source. Marks after values point to notes of the source that are not given here.
# Assays:
# [1] = test system: Acinetobacter baumannii; assay: MIC, compound in combination with a second agent (broth microdilution); assay type: cell-based
# In short: (§1)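 Isolated colonies from an 18-24 hour Mueller-Hinton agar plate are suspended to the 0.5 McFarland standard, then tested against 1:1 w/w mixtures of compound and a second antibacterial such as rifampicin. Reported MICs represent total drug (both components).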
# [2] = test system: Escherichia coli; assay: as above; assay type: cell-based
# In short: as §1
# [3] = test system: Klebsiella pneumoniae; assay: as above; assay type: cell-based; details: for MIC K. pneumoniae ATCC 4352 / MIC K. pneumoniae CCUG 59349: total drug concentration
# In short: as §1
# [4] = test system: Pseudomonas aeruginosa; assay: as above; assay type: cell-based; details: for MIC P. aeruginosa ATCC 10145: total drug concentration
# In short: as §1
# [5] = test system: Acinetobacter baumannii; assay: MIC, sole activity (no second agent); assay type: cell-based
# In short: (§2)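 Compound tested without a second agent in cation-adjusted MHB, up to four strains per species, inoculum at 0.5 McFarland from colonies grown 18-24 h on Mueller-Hinton agar. Run in duplicate, invalid beyond 2-fold disagreement, lower duplicate or modal repeat value given, expressed relative to Polymyxin B.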
# [6] = test system: Escherichia coli; assay: MIC, sole activity (no second agent); assay type: cell-based
# In short: as §2
# [7] = test system: Klebsiella pneumoniae; assay: MIC, sole activity (no second agent); assay type: cell-based
# In short: as §2
# [8] = test system: Pseudomonas aeruginosa; assay: MIC, sole activity (no second agent); assay type: cell-based
# In short: as §2
# [9] = test system: Escherichia coli isolate ATCC25922; details: subcutaneous BID
# Protocol: At 1 h, the CFU count was determined from 5 mice and the remaining mice (five per group) were treated with a subcutaneous injection of the drug at +1 and 6 hr post-infection.
# Twenty-four hours after infection, the mice were euthanized humanely. The muscle of the right thigh of each animal was harvested, homogenized, serially diluted and plated on Brain Heart Infusion agar+0.5% charcoal (w/v) for CFU determination. Decrease of the total CFU of right thigh as compared to control counts at 24 h post-infection was determined for each dose group.
# [10] = 1:1 combination with Aztreonam, total drug concentration
# [11] = Table 6A, no second agent, different supplier of Cation-adjusted MHB
substance,measurement,setting,value
Polymyxin B [reference compound],MIC A. baumannii ATCC BAA-747,"[1]; 1:1 (wt:wt) combination with Rifampicin, MIC = total drug concentration, strain ATCC BAA-747",0.125 micrograms/mL
same,MIC A. baumannii CCUG57249,"[1]; 1:1 (wt:wt) combination with Rifampicin, MIC = total drug concentration, strain CCUG57249",0.25 micrograms/mL
same,MIC A. baumannii NCTC 13423,"[1]; 1:1 (wt:wt) combination with Rifampicin, MIC = total drug concentration, strain NCTC 13423",0.125 micrograms/mL
same,MIC A. baumannii NCTC 13424,"[1]; 1:1 (wt:wt) combination with Rifampicin, MIC = total drug concentration, strain NCTC 13424",0.5 micrograms/mL
same,MIC A. baumannii NCTC 13424,[1]; [10],1 micrograms/mL
same,MIC A. baumannii NCTC 13424,"[1]; A. baumannii NCTC 13424, 1:1 combination with Azithromycin, total drug concentration",1 micrograms/mL
same,MIC A. baumannii NCTC 13424,"[1]; A. baumannii NCTC 13424, 1:1 combination with Novobiocin, total drug concentration",0.125 micrograms/mL
same,MIC E. coli ATCC25922,"[2]; 1:1 (wt:wt) combination with Rifampicin, MIC = total drug concentration, strain ATCC25922",0.25 micrograms/mL
same,MIC E. coli NCTC9001,"[2]; 1:1 (wt:wt) combination with Rifampicin, MIC = total drug concentration, strain NCTC9001",0.5 micrograms/mL
same,MIC E. coli ATCC25922,[2]; [10],0.125 micrograms/mL
same,MIC E. coli NCTC 13441,[2]; [10],1 micrograms/mL
same,MIC E. coli ATCC25922,"[2]; E. coli ATCC25922, 1:1 combination with Azithromycin, total drug concentration",0.25 micrograms/mL
same,MIC E. coli ATCC25922,"[2]; E. coli ATCC25922, 1:1 combination with Fusidic acid, total drug concentration",2 micrograms/mL
same,MIC E. coli ATCC25922,"[2]; E. coli ATCC25922, 1:1 combination with Novobiocin, total drug concentration",0.5 micrograms/mL
same,MIC E. coli ATCC25922,"[2]; E. coli ATCC25922, 1:1 combination with Oxacillin, total drug concentration",2 micrograms/mL
same,MIC E. coli NCTC 13441,"[2]; E. coli NCTC 13441, 1:1 combination with Azithromycin, total drug concentration",1 micrograms/mL
same,MIC E. coli NCTC 13441,"[2]; E. coli NCTC 13441, 1:1 combination with Novobiocin, total drug concentration",1 micrograms/mL
same,MIC K. pneumoniae ATCC-BAA-2146,"[3]; 1:1 (wt:wt) combination with Rifampicin, MIC = total drug concentration, strain ATCC-BAA-2146",1 micrograms/mL
same,MIC K. pneumoniae CCUG-59348,"[3]; 1:1 (wt:wt) combination with Rifampicin, MIC = total drug concentration, strain CCUG-59348",1 micrograms/mL
same,MIC K. pneumoniae NCTC 13438,"[3]; 1:1 (wt:wt) combination with Rifampicin, MIC = total drug concentration, strain NCTC 13438",1 micrograms/mL
same,MIC K. pneumoniae ATCC 4352,[3]; 1:1 combination with Aztreonam,≤0.06 micrograms/mL
same,MIC K. pneumoniae CCUG 59349,[3]; 1:1 combination with Aztreonam,2 micrograms/mL
same,MIC K. pneumoniae ATCC 4352,"[3]; K. pneumoniae ATCC4352, 1:1 combination with Azithromycin",0.25 micrograms/mL
same,MIC K. pneumoniae ATCC 4352,"[3]; K. pneumoniae ATCC4352, 1:1 combination with Fusidic acid",1 micrograms/mL
same,MIC K. pneumoniae ATCC 4352,"[3]; K. pneumoniae ATCC4352, 1:1 combination with Novobiocin",0.25 micrograms/mL
same,MIC K. pneumoniae ATCC 4352,"[3]; K. pneumoniae ATCC4352, 1:1 combination with Oxacillin",4 micrograms/mL
same,MIC K. pneumoniae CCUG 59349,"[3]; K. pneumoniae CCUG 59349, 1:1 combination with Azithromycin",2 micrograms/mL
same,MIC K. pneumoniae CCUG 59349,"[3]; K. pneumoniae CCUG 59349, 1:1 combination with Novobiocin",1 micrograms/mL
same,MIC P. aeruginosa ATCC 27853,"[4]; 1:1 (wt:wt) combination with Rifampicin, MIC = total drug concentration, strain ATCC 27853",0.5 micrograms/mL
same,MIC P. aeruginosa ATCC CRM-9027,"[4]; 1:1 (wt:wt) combination with Rifampicin, MIC = total drug concentration, strain ATCC CRM-9027",0.25 micrograms/mL
same,MIC P. aeruginosa ATCC-47,"[4]; 1:1 (wt:wt) combination with Rifampicin, MIC = total drug concentration, strain ATCC-47",0.5 micrograms/mL
same,MIC P. aeruginosa CCUG 59626,"[4]; 1:1 (wt:wt) combination with Rifampicin, MIC = total drug concentration, strain CCUG 59626",0.5 micrograms/mL
same,MIC P. aeruginosa ATCC 10145,[4]; 1:1 combination with Aztreonam,1 micrograms/mL
same,MIC P. aeruginosa ATCC 10145,"[4]; P. aeruginosa ATCC 10145, 1:1 combination with Azithromycin",1 micrograms/mL
same,MIC P. aeruginosa ATCC 10145,"[4]; P. aeruginosa ATCC 10145, 1:1 combination with Novobiocin",1 micrograms/mL
same,MIC A. baumannii NCTC 13424,[5]; Second Agent none (Table 7E),0.125 micrograms/mL
same,MIC A. baumannii ATCC BAA-747,[5]; [11],0.25 micrograms/mL
same,MIC A. baumannii NCTC 13424,[5]; [11],0.5 micrograms/mL
same,MIC A. baumannii NCTC 13424,"[5]; Table 7F, A. baumannii NCTC 13424, second agent none",0.125 micrograms/mL
same,MIC A. baumannii NCTC 13424,"[5]; Table 7H, A. baumannii NCTC 13424, second agent none",0.125 micrograms/mL
same,MIC A. baumannii ATCC13424,"[5]; in the absence of Rifampicin, strain ATCC13424",1 micrograms/mL
same,MIC A. baumannii ATCCBAA-747,"[5]; in the absence of Rifampicin, strain ATCCBAA-747",0.5 micrograms/mL
same,MIC A. baumannii CCUG57249,"[5]; in the absence of Rifampicin, strain CCUG 57249",1 micrograms/mL
same,MIC A. baumannii NCTC 13423,"[5]; in the absence of Rifampicin, strain NCTC13423",0.5 micrograms/mL
same,MIC E. coli ATCC25922,[6]; Second Agent none (Table 7E),0.5 micrograms/mL
same,MIC E. coli NCTC 13441,[6]; Second Agent none (Table 7E),1 micrograms/mL
same,MIC E. coli ATCC25922,[6]; [11],0.25 micrograms/mL
same,MIC E. coli NCTC 13441,[6]; [11],0.25 micrograms/mL
same,MIC E. coli ATCC25922,"[6]; Table 7F, E. coli ATCC25922, second agent none",0.5 micrograms/mL
same,MIC E. coli NCTC 13441,"[6]; Table 7F, E. coli NCTC 13441, second agent none",1 micrograms/mL
same,MIC E. coli ATCC25922,"[6]; Table 7G, E. coli ATCC25922, second agent none",0.5 micrograms/mL
same,MIC E. coli ATCC25922,"[6]; Table 7H, E. coli ATCC25922, second agent none",0.5 micrograms/mL
same,MIC E. coli NCTC 13441,"[6]; Table 7H, E. coli NCTC 13441, second agent none",1 micrograms/mL
same,MIC E. coli ATCC25922,"[6]; Table 7I, E. coli ATCC25922, second agent none",0.5 micrograms/mL
same,MIC E. coli ATCC25922,"[6]; in the absence of Rifampicin, strain ATCC25922",1 micrograms/mL
same,MIC E. coli NCTC9001,"[6]; in the absence of Rifampicin, strain NCTC9001",1 micrograms/mL
same,MIC K. pneumoniae CCUG 59349,[7]; Second Agent none (Table 7E),0.5 micrograms/mL
same,MIC K. pneumoniae ATCC 4352,[7]; [11],0.25 micrograms/mL
same,MIC K. pneumoniae ATCC BAA-2146,[7]; [11],0.5 micrograms/mL
same,MIC K. pneumoniae CCUG 59349,"[7]; Table 7F, K. pneumoniae CCUG 59349, second agent none",0.5 micrograms/mL
same,MIC K. pneumoniae CCUG 59349,"[7]; Table 7H, K. pneumoniae CCUG 59349, second agent none",0.5 micrograms/mL
same,MIC K. pneumoniae ATCC 4352,"[7]; in the absence of Rifampicin, strain ATCC 4352",1 micrograms/mL
same,MIC K. pneumoniae ATCC-BAA2146,"[7]; in the absence of Rifampicin, strain ATCC-BAA2146",2 micrograms/mL
same,MIC K. pneumoniae CCUG-59348,"[7]; in the absence of Rifampicin, strain CCUG-59348",16 micrograms/mL
same,MIC K. pneumoniae NCTC-13438,"[7]; in the absence of Rifampicin, strain NCTC-13438",1 micrograms/mL
same,MIC P. aeruginosa ATCC 10145,[8]; Second Agent none (Table 7E),0.5 micrograms/mL
same,MIC P. aeruginosa ATCC 27853,[8]; [11],0.5 micrograms/mL
same,MIC P. aeruginosa CCUG 59347,[8]; [11],0.5 micrograms/mL
same,MIC P. aeruginosa ATCC 10145,"[8]; Table 7F, P. aeruginosa ATCC 10145, second agent none",0.5 micrograms/mL
same,MIC P. aeruginosa ATCC 10145,"[8]; Table 7H, P. aeruginosa ATCC 10145, second agent none",0.5 micrograms/mL
same,MIC P. aeruginosa ATCC 27853,"[8]; in the absence of Rifampicin, strain ATCC27853",0.5 micrograms/mL
same,MIC P. aeruginosa ATCC-47,"[8]; in the absence of Rifampicin, strain ATCC-47",2 micrograms/mL
same,MIC P. aeruginosa ATCCCRM-9027,"[8]; in the absence of Rifampicin, strain ATCCCRM-9027",0.25 micrograms/mL
same,MIC P. aeruginosa CCUG 59626,"[8]; in the absence of Rifampicin, strain CCUG 59626",0.5 micrograms/mL
same,Mean log10 CFU reduction vs. control,"[9]; Table 11, total daily dosage 3 mg/kg (sulfate salt), 24 h post-infection",2.5 ^a log10 CFU
same,Mean log10 CFU reduction vs. control,"[9]; Table 11, total daily dosage 10 mg/kg (sulfate salt), 24 h post-infection",4.2 ^a log10 CFU
same,Mean log10 CFU reduction vs. control,"[9]; Table 11A, separate study, total daily dosage 3 mg/kg (sulfate salt)",3.75 log10 CFU
same,Mean log10 CFU reduction vs. control,"[9]; Table 11A, separate study, total daily dosage 10 mg/kg (sulfate salt)",4.87 log10 CFU

# — patent US10407467B2, “Polymyxin derivatives and their use in combination therapy together with different antibiotics” (priority 2013, dated 2019)
